Measured values: US6723710B2, “Compositions for inhibiting arginase activity” (The Trustees of the University of Pennsylvania, priority 1997, dated 2004)
Read-outs that look alike come from different tables or passages of the source.

Assays:
arginase [1] = conditions: read-out: Ki previously reported; cited from earlier work
arginase [2] = target: T1, arginase (Rattus norvegicus, UniProt P07824); conditions: cited from earlier work
T1 sequence (P07824 1-323): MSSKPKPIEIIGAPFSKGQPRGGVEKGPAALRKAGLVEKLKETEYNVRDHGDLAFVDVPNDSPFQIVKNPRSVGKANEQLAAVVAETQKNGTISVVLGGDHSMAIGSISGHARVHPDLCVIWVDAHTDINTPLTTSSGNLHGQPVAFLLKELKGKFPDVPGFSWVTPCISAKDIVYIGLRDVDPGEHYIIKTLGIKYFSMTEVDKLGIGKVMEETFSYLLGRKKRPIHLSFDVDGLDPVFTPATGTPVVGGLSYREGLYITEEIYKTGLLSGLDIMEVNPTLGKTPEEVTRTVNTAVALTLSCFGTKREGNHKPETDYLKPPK

[3] = system: internal anal sphincter (IAS) smooth muscle; test: NANC nerve-mediated relaxation of IAS smooth muscle strips by electrical field stimulation; parameters: species or system opossum (Didelphis virginiana); conditions: with L-NNA; L-HO-Arg and ABHA 3×10^−4 molar
Source text: The entire anal canal was isolated carefully by dissection and transferred to a dissecting tray containing oxygenated (95% O2 plus 5% CO2) Krebs' solution. The composition of the Krebs' solution was as follows (in millimolar): NaCl, 118.07; KCl 4.69; […] MgSO4, 1.16; […] NaHCO3, 25 and glucose (Pufahl et al., 1995, Biochemistry 34:1930-1941; […] et al., 1993, Biochem. Biophys. Res. Commun. 196:1558-1565). The anal canal was cleaned of extraneous connective tissue and blood vessels. Following this, the anal canal was opened by making an incision along the longitudinal axis, and was pinned flat with the mucosal side facing up. The mucosa and submucosa were removed by sharp dissection. Circular smooth muscle strips were obtained from the whole circumference of the anal canal and divided into two equal strips (about 1×8 millimeters). Both ends of the muscle strips were secured with silk sutures (4-0: Ethicon Inc., Sommerville, N.J.) and used for the measurement of isometric tension. […] One end of each muscle strip was fixed to the bottom of the muscle bath with a tissue holder and the other end was attached to an isometric force transducer (model FT03; Grass Instruments Co., Quincy, Mass.) in order to measure isometric tension. Smooth muscle tension was recorded using a […] recorder (model […]; Beckman Instruments, Schiller Park, Ill.). […] J. Physiol. 255:[…]-[…]). Only those smooth muscle strips that developed spontaneous and steady tension and relaxed in response to electrical field stimulation (EFS) were used. EFS was delivered, via a pair of platinum wires, from a Grass stimulator (Model S88; Grass Instruments Co., Quincy, Mass.) connected in series to a Med-Lab […] (Med-Lab Instruments, Loveland, Colo.). […] These parameters of EFS are known to cause relaxation of IAS smooth muscle by selective activation of NANC myenteric neurons. Neurally-mediated relaxation of IAS smooth muscle strips was quantified in response to different frequencies of EFS. […] To determine the influence of arginase on NANC nerve-mediated relaxation of IAS, the effects of different doses of arginase on relaxation were first determined. […] The effectiveness of arginase inhibitors (L-OH-Arg and ABHA) on arginase-induced attenuation of EFS-induced IAS relaxation was then tested. Optimal doses of arginase and L-OH-Arg in IAS have been reported ([…] and […]. Pharmacol. Exp. Ther. 282:378-384). In order to determine the selectivity of arginase inhibitors in IAS, their effects on IAS relaxation suppressed by the NO synthase inhibitor L-NNA ([…]) were tested. […] To examine the physiological relevance of arginase inhibitors in IAS relaxation, the influence of selected concentrations of arginase inhibitors on EFS-induced IAS relaxation was examined. […] Each smooth muscle strip served as its own control. […] The results are expressed as means±standard error.

rat liver arginase = target: T2, rat liver arginase (Rattus norvegicus, UniProt P07824); test: continuous chromogenic arginase assay with substrate 1-nitro-3-guanidinobenzene (compound 18); type: biochemical; parameters: made in house
T2 sequence (P07824 1-323): T1 sequence (P07824 1-323)
Experimental: The activity of wild-type arginase was monitored spectrophotometrically using a Pharmacia BIOTECH ULTROSPEC™ 2000. Assays were performed in a solution comprising 100 micromolar MnCl2 and 50 millimolar bicine-NaOH (pH 9.0). […] Eadie-Hofstee plots were used to analyze the data.

Compound: N=C(NO)NCC[C@H](N)C(=O)O [N-hydroxy-nor-arginine]
- Ki (arginase [1]): 0.5 µM

Compound: NC(CCCCC(N)C(=O)O)=NO (stereo not shown) [N-hydroxyindospicine]
- Ki (arginase [1]): 20 µM

Compound: NCCCC[C@H](NO)C(=O)O [N-hydroxylysine]
- Ki (arginase [1]): 4 µM

Compound: N=C(N)NCCC[C@H](N)C(=O)O [L-arginine]
- kcat reported (arginase [2]; as substrate): 15,000±1200 reciprocal minutes
- Km (arginase [2]; as substrate, read-out: KM reported): 1.4 ± 0.3 mM
- reversal of L-NNA-suppressed IAS relaxation [3]: significant and concentration-dependent reversal

Compound: N[C@@H](CSCC[Si](O)(O)O)C(=O)O [compound 16, S-(2-trihydroxysilylethyl)-L-cysteine]
- Ki (rat liver arginase; assay with substrate 18, assuming competitive inhibition): 420 µM

Compound: O[B-](O)(O)O [borate]
- Ki (arginase [2]; non-competitive inhibitor, read-out: KII): 260 µM
- Ki (arginase [2]; non-competitive inhibitor, read-out: KIS): 980 µM

Compound: NCCC[C@H](N)C(=O)O [ornithine]
- Ki (arginase [2]; read-out: Ki): 1000 µM

Compound: N[C@@H](CCCB(O)O)C(=O)O [compound 12, 2(S)-amino-5-boronopentanoic acid]
- tnpseudo (moles of inhibitor/mole of arginase) (rat liver arginase; 2 millimolar compound 18 as substrate, pseudo-turnover number, smaller = better inhibition): 420 ± 30 moles of inhibitor/mole of arginase
- fold less potent than compounds 7 and 15 (from tnpseudo) (rat liver arginase; substrate 18): about 400 fold

Compound: N=C(N)Nc1cccc([N+](=O)[O-])c1 [compound 18, 1-nitro-3-guanidinobenzene]
- kcat for arginase-catalyzed hydrolysis (rat liver arginase; as substrate, monomer 35 kilodaltons): 0.09±0.02 reciprocal minutes
